ChEMBL document CHEMBL5154846, “Adjusted degradation of BRD4 S and BRD4 L based on fine structural modifications of the pyrrolopyridone scaffold” (Eur J Med Chem, 2022)
Activity calls are given as the source filed them. No cut-off for these calls is given here.

Columns and labels:
[1] = target: T1, Bromodomain-containing protein 4 (Homo sapiens, UniProt O60885); assay: Inhibition of BRD4-BD1 (unknown origin) preincubated for 30 mins followed by substrate addition and measured after 3 hr by HTRF assay
[2] = target: T1, Bromodomain-containing protein 4; assay: Inhibition of BRD4-BD2 (unknown origin) preincubated for 30 mins followed by substrate addition and measured after 3 hr by HTRF
[3] = target: T1, Bromodomain-containing protein 4; assay: Protac activity at BRD4 short isoform in human MV4-11 cells at 100 nM for 24 hrs by immunoblot analysis; type: cell-based
[4] = target: Bromodomain-containing protein 2 (Homo sapiens) (UniProt P25440); assay: Protac activity at BRD2 in human MV4-11 cells at 100 nM measured after 4 hrs by immunoblot analysis; type: cell-based
[5] = target: Bromodomain-containing protein 2 (Homo sapiens) (UniProt P25440); assay: Protac activity at BRD2 in human MV4-11 cells at 100 nM measured after 24 hrs by immunoblot analysis; type: cell-based
[6] = target: Bromodomain-containing protein 3 (Homo sapiens) (UniProt Q15059); assay: Protac activity at BRD3 in human MV4-11 cells at 100 nM measured after 4 hrs by immunoblot analysis; type: cell-based
[7] = target: Bromodomain-containing protein 3 (Homo sapiens) (UniProt Q15059); assay: Protac activity at BRD3 in human MV4-11 cells at 100 nM measured after 24 hrs by immunoblot analysis; type: cell-based
[8] = target: T1, Bromodomain-containing protein 4; assay: Protac activity at BRD4 short isoform in human MV4-11 cells at 100 nM for 12 hrs by immunoblot analysis; type: cell-based
[9] = system: MV4-11; assay: Antiproliferative activity against human MV4-11 cells incubated for 72 hrs by CCK8 assay; type: functional, cell-based; conditions: MV4-11, 72 h
[10] = system: MV4-11; assay: Cell cycle arrest in human MV4-11 cells assessed as accumulation at G2/M phase at 0.1 uM for 24 hrs by PI/RNase staining based flow cytometry analysis; type: functional
[11] = system: MV4-11; assay: Anti-proliferative activity in human MV4-11 cells assessed as downregulation of c-myc levels at 10 to 1000 nM incubated for 4 hrs by western blot analysis; type: functional, cell-based; conditions: dose 10-1000 nM
[12] = system: MV4-11; assay: Anti-proliferative activity in human MV4-11 cells assessed as downregulation of c-myc levels at 100 nM incubated for 24 hrs by western blot analysis; type: functional, cell-based

Chain of Bromodomain-containing protein 2 (Homo sapiens) (P25440 whole entry, looked up): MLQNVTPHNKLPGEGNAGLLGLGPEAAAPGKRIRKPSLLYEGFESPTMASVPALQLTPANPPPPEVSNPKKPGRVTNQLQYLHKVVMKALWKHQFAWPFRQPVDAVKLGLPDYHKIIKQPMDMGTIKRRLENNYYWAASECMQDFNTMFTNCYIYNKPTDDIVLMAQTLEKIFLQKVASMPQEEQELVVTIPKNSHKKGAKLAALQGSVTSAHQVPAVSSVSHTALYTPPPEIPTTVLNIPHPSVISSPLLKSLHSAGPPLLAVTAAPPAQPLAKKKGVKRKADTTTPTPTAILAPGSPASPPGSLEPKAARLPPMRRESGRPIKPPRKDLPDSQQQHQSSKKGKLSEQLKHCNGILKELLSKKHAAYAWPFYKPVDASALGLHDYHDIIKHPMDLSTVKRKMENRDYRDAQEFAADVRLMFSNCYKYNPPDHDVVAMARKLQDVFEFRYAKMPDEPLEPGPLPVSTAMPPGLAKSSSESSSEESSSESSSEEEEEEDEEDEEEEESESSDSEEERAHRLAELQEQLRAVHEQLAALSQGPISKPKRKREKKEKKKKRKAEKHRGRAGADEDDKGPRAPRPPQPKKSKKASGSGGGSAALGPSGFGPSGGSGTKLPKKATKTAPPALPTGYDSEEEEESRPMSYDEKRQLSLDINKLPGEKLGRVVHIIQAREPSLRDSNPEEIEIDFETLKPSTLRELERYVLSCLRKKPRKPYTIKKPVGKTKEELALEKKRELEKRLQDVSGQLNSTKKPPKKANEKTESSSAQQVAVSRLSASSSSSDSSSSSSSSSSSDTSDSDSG
Chain of Bromodomain-containing protein 3 (Homo sapiens) (Q15059 2-726 limits assumed): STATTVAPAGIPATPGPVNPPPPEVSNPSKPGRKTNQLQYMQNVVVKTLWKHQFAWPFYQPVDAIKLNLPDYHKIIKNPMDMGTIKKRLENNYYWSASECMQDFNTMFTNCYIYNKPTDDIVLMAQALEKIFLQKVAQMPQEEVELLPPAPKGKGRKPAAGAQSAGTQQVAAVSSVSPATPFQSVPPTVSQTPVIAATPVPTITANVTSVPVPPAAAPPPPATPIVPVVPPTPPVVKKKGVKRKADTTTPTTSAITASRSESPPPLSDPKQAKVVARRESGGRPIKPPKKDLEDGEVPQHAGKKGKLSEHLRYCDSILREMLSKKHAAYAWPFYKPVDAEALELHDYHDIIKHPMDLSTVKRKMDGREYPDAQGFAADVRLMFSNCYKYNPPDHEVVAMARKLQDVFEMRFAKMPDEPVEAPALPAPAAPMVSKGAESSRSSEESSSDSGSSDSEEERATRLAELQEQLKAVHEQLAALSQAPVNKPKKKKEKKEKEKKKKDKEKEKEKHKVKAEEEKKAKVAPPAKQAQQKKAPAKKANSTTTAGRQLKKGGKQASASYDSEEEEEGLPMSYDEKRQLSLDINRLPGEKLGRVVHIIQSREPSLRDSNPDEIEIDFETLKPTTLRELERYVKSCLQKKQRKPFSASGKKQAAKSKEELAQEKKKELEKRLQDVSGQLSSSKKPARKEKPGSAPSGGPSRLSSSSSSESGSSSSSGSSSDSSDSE

Row | IC50 [1] [nM] | IC50 [2] [nM] | Activity [3] | Activity [4] | Activity [5] | Activity [6] | Activity [7] | Activity [8] | IC50 [9] [nM] | Compound | Activity [10] | Activity [11] | Activity [12]
1 | 24.6 | 13.9 |  |  |  |  |  |  |  | CC(C)Oc1ccc(C(C)(C)O)cc1-c1cn(C)c(=O)c2[nH]c(C(=O)NCc3ccc(C(=O)NCCCCNc4cccc5c4C(=O)N(C4CCC(=O)NC4=O)C5=O)cc3)cc12 (stereo unspecified) |  |  | 
2 | 83.7 | 91.5 | Active |  |  |  |  |  |  | CC(C)Oc1ccccc1-c1cn(C)c(=O)c2[nH]c(C(=O)NCc3ccc(C(=O)NCCCCNc4cccc5c4C(=O)N(C4CCC(=O)NC4=O)C5=O)cc3)cc12 (stereo unspecified) |  |  | 
3 | 45.4 | 73 |  |  |  |  |  |  |  | Cn1cc(-c2cccc(C(C)(C)O)c2)c2cc(C(=O)NCc3ccc(C(=O)NCCCCNc4cccc5c4C(=O)N(C4CCC(=O)NC4=O)C5=O)cc3)[nH]c2c1=O (stereo unspecified) |  |  | 
4 | 241 | 74.1 | Active |  |  |  |  |  |  | C=C(C)c1ccc(Oc2ccccc2)c(-c2cn(C)c(=O)c3[nH]c(C(=O)NCc4ccc(C(=O)NCCCCNc5cccc6c5C(=O)N(C5CCC(=O)NC5=O)C6=O)cc4)cc23)c1 (stereo unspecified) |  |  | 
5 | 22.7 | 7.79 |  |  |  |  |  |  |  | Cn1cc(-c2cc(C(C)(C)O)ccc2OC2CC2)c2cc(C(=O)NCc3ccc(C(=O)NCCCCNc4cccc5c4C(=O)N(C4CCC(=O)NC4=O)C5=O)cc3)[nH]c2c1=O (stereo unspecified) |  |  | 
6 | 119 | 101 | Active |  |  |  |  |  |  | C=C(C)c1ccc(OC(C)C)c(-c2cn(C)c(=O)c3[nH]c(C(=O)NCc4ccc(C(=O)NCCCCNc5cccc6c5C(=O)N(C5CCC(=O)NC5=O)C6=O)cc4)cc23)c1 (stereo unspecified) |  |  | 

More lines, now with the values behind:

Row | Compound | IC50 [1] [nM] | IC50 [2] [nM] | Activity [3] | Activity [4] | Activity [5] | Activity [6] | Activity [7] | Activity [8] | IC50 [9] [nM] | Activity [10] | Activity [11] | Activity [12]
7 | Cn1cc(-c2ccccc2)c2cc(C(=O)NCc3ccc(C(=O)NCCCCNc4cccc5c4C(=O)N(C4CCC(=O)NC4=O)C5=O)cc3)[nH]c2c1=O (stereo unspecified) | 99.8 | 296 |  |  |  |  |  |  |  |  |  | 
8 | Cn1cc(-c2ccccc2Oc2ccccc2)c2cc(C(=O)NCCCCNc3cccc4c3C(=O)N(C3CCC(=O)NC3=O)C4=O)[nH]c2c1=O (stereo unspecified) | 472 | 84.9 | Active | Active | Active | Active | Active |  |  |  |  | 
9 | Cn1cc(-c2ccccc2Oc2ccccc2)c2cc(C(=O)NCc3ccc(C(=O)NCCCCNc4cccc5c4C(=O)N(C4CCC(=O)NC4=O)C5=O)cc3)[nH]c2c1=O (stereo unspecified) | 34.6 | 27.2 | Active | Active | Active | Active | Active | Active |  |  |  | 
10 | Cn1cc(-c2ccccc2Oc2ccccc2)c2cc(C(=O)NCCCCC(=O)NCCCCNc3cccc4c3C(=O)N(C3CCC(=O)NC3=O)C4=O)[nH]c2c1=O (stereo unspecified) | 185 | 24.3 | Active | Active | Active | Active | Active |  |  |  |  | 
11 | Cn1cc(-c2ccccc2Oc2ccccc2)c2cc(C(=O)NCCCCCC(=O)NCCCCNc3cccc4c3C(=O)N(C3CCC(=O)NC3=O)C4=O)[nH]c2c1=O (stereo unspecified) | 278 | 38.8 | Active | Active | Active | Active | Active |  |  |  |  | 
12 | Cc1sc2c(c1C)C(c1ccc(Cl)cc1)=N[C@@H](CC(=O)NCCCCCCCCNC(=O)COc1cccc3c1C(=O)N(C1CCC(=O)NC1=O)C3=O)c1nnc(C)n1-2 (stereo partly specified) |  |  |  | Active | Active | Active | Active |  | 10.3 | Active | Active | Active
13 | COc1cc(C(=O)NCCOCCOCCOCCNC(=O)C[C@@H]2N=C(c3ccc(Cl)cc3)c3c(sc(C)c3C)-n3c(C)nnc32)ccc1NC(=O)[C@@H]1N[C@@H](CC(C)(C)C)[C@](C#N)(c2ccc(Cl)cc2F)[C@H]1c1cccc(Cl)c1F |  |  | Active |  |  |  |  |  |  |  |  | 
14 | Cn1cc(-c2ccccc2Oc2ccccc2)c2cc(C(=O)NCCCCCCC(=O)NCCCCNc3cccc4c3C(=O)N(C3CCC(=O)NC3=O)C4=O)[nH]c2c1=O (stereo unspecified) | 332 | 35.7 | Active | Active | Active | Active | Active |  |  |  |  | 
15 | CCNC(=O)c1cc2c(-c3cc(C(C)(C)O)ccc3Oc3c(C)cc(F)cc3C)cn(C)c(=O)c2[nH]1 [ABBV-744] |  |  |  |  |  |  |  |  | 153 |  |  | 
16 | Cn1cc(-c2cc(C(C)(C)O)ccc2Oc2ccccc2)c2cc(C(=O)NCc3ccc(C(=O)NCCCCNc4cccc5c4C(=O)N(C4CCC(=O)NC4=O)C5=O)cc3)[nH]c2c1=O (stereo unspecified) | 29.5 | 3.82 |  |  |  |  |  |  |  |  |  | 
17 | Cn1cc(-c2ccccc2OC2CC2)c2cc(C(=O)NCc3ccc(C(=O)NCCCCNc4cccc5c4C(=O)N(C4CCC(=O)NC4=O)C5=O)cc3)[nH]c2c1=O (stereo unspecified) | 54.3 | 96.4 | Active |  |  |  |  | Active |  |  |  | 
18 | Cn1cc(-c2ccccc2Oc2ccccc2)c2cc(C(=O)NCCCCCCNc3cccc4c3C(=O)N(C3CCC(=O)NC3=O)C4=O)[nH]c2c1=O (stereo unspecified) | 441 | 39.4 | Active | Active | Active | Active | Active |  |  |  |  | 
